Source: publication PMC12657457 (Frontiers in Pharmacology, 2025)
Counter-ions that a name gives are not always drawn. Like-named read-outs stand apart in the source and are kept apart here.

Experiments:
Recombinant human AChE = target: T1, Recombinant human AChE (Homo sapiens, UniProt P22303); experiment: Single-concentration screening, modified Ellman's assay (AChE); type: biochemical; details: 0.5 mM ATC
T1 construct: purchased Sigma-Aldrich C1682
Description: (§1) Propranolol hydrochloride and diltiazem hydrochloride were obtained from Sigma-Aldrich (St. Louis, MO, United States). The stock solution was prepared at 10 mM in DMSO. Acetylthiocholine iodide (ATC), butyrylthiocholine iodide (BTC), and 5,5′-dithiobis-(2-nitrobenzoic acid) (DTNB) were also purchased from Sigma-Aldrich. Recombinant human AChE (Cat. No. C1682) and pooled human plasma (source of BChE) were used as enzyme sources. The pooled human plasma was prepared as described before ([Vijayaraghavan et al., 2013]). Briefly, pooled plasma samples were prepared by combining equal volumes from a large cohort of patients clinically diagnosed with mild-to-moderate AD. All samples were collected prior to the initiation of any cholinesterase inhibitor treatment. An equal volume of glycerol was then added to the pooled plasma, thoroughly mixed, and aliquoted into small tubes. These aliquots were stored at -20 °C until used in the assay. Each aliquot was used only once to avoid any interference due to freeze-thaw cycles. All other reagents were of analytical grade.
Cholinesterase activity was measured using a modified Ellman’s colorimetric method adapted for high-throughput screening ([Kumar et al., 2017]; [2020]; [Darreh-Shori et al., 2024]). Assays were conducted in 384-well microplates. Briefly, 20 µL of buffer was initially added to all wells. Subsequently, 20 µL of enzyme solution was added to designated wells, while 20 µL of buffer without enzyme was added to the negative control wells. […] The plate reader (Tecan Infinite M1000) was configured for a 384-well transparent plate in absorbance mode at 412 nm, with kinetic reading taken over 10 min at 1-min intervals. Following incubation, 20 µL of Master Mix Buffer (MMB) cocktail was added to each well using a multichannel pipette, and the plate reading was initiated inmediately. […] Upon completion of the reading, the data file was saved, enzyme activity rates were extracted, and the data were analyzed. Enzyme activity was calculated from the slope of the linear portion of the absorbance-time curve.

plasma-derived BChE = target: T2, plasma-derived BChE (Homo sapiens, UniProt P06276); experiment: Single-concentration screening, modified Ellman's assay (BChE); type: biochemical; details: read-out: BChE inhibition relative to vehicle control
T2 construct: pooled human plasma (source of BChE) were used as enzyme sources; from tissue; host or cells: pooled human plasma from patients with mild-to-moderate AD
T2 sequence (P06276 29-602): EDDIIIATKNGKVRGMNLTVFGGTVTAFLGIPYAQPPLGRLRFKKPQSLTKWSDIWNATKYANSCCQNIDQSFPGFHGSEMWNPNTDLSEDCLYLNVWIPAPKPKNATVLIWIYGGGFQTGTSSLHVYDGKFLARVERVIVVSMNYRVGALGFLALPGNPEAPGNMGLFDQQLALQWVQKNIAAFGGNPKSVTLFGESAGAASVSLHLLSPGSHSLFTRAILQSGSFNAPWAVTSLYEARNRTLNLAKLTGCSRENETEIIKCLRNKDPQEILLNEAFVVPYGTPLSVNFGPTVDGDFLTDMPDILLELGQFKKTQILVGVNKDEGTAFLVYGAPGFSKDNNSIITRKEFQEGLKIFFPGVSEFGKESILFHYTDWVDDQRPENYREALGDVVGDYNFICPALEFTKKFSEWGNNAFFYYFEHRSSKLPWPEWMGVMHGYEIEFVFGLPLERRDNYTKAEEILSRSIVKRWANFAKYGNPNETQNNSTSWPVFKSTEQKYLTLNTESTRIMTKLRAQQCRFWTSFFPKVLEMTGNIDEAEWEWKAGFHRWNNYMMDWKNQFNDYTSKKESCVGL
Description: Propranolol hydrochloride and diltiazem hydrochloride were obtained from Sigma-Aldrich (St. Louis, MO, United States). The stock solution was prepared at 10 mM in DMSO. Acetylthiocholine iodide (ATC), butyrylthiocholine iodide (BTC), and 5,5′-dithiobis-(2-nitrobenzoic acid) (DTNB) were also purchased from Sigma-Aldrich. Recombinant human AChE (Cat. No. C1682) and pooled human plasma (source of BChE) were used as enzyme sources. The pooled human plasma was prepared as described before ([Vijayaraghavan et al., 2013]). Briefly, pooled plasma samples were prepared by combining equal volumes from a large cohort of patients clinically diagnosed with mild-to-moderate AD. […]
Cholinesterase activity was measured using a modified Ellman’s colorimetric method adapted for high-throughput screening ([Kumar et al., 2017]; [2020]; [Darreh-Shori et al., 2024]). […] The plate reader (Tecan Infinite M1000) was configured for a 384-well transparent plate in absorbance mode at 412 nm, with kinetic reading taken over 10 min at 1-min intervals. Following incubation, 20 µL of Master Mix Buffer (MMB) cocktail was added to each well using a multichannel pipette, and the plate reading was initiated inmediately. […] Upon completion of the reading, the data file was saved, enzyme activity rates were extracted, and the data were analyzed. […]

human BChE = target: T3, human BChE (Homo sapiens, UniProt P06276); experiment: IC50 determination against BChE in pooled human plasma (Ellman); type: biochemical
T3 construct: pooled human plasma (source of BChE) were used as enzyme sources; from tissue; host or cells: pooled human plasma from patients with mild-to-moderate AD
T3 sequence (P06276 29-602): as above
Description: as §1, with “The” for “Propranolol hydrochloride and diltiazem hydrochloride were obtained from Sigma-Aldrich (St. Louis, MO, United States). The”
(§2) Substrate concentrations were varied in a two-fold serial dilution: BTC (5 mM–[…]) for BChE and ATC (0.5 mM–[…]) for AChE. Each well received 20 µL of compound or vehicle, 20 µL of substrate, 20 µL of enzyme/DTNB master mix (for all of them 4x working solution in order to reach final concentration), and 20 µL of buffer. Absorbance at 412 nm was measured every 2 min for 15–20 min.

human plasma BChE = target: T4, human plasma BChE (Homo sapiens, UniProt P06276); experiment: Ex vivo enzyme-inhibition kinetic analysis (Ki and inhibition mode); type: biochemical; details: for Inhibition mode (BChE): best-fit nonlinear regression model
T4 construct: pooled human plasma (source of BChE) were used as enzyme sources; from tissue; host or cells: pooled human plasma from patients with mild-to-moderate AD
T4 sequence (P06276 29-602): as above
Description: as §1, with “The” for “Propranolol hydrochloride and diltiazem hydrochloride were obtained from Sigma-Aldrich (St. Louis, MO, United States). The”
as §2
To further elucidate the mechanism of inhibition, inhibition constant (Kᵢ) values and inhibition modes were determined using nonlinear regression models in GraphPad Prism 10. Multiple models were tested, including competitive, noncompetitive, uncompetitive, and mixed inhibition. The optimal model for each compound was selected based on residual analysis and the Akaike Information Criterion (AIC), ensuring robust statistical support. In cases of mixed inhibition, the α parameter was used to characterize the relative affinity of the inhibitor for the enzyme-substrate complex versus the free enzyme.

[1] = physiologically relevant concentration; ref Cruickshank and Neil-Dwyer, 1985; cited from earlier work
BChE = details: at approximately 0.59 µM in plasma and 10 µM in brain tissue; ref Cruickshank and Neil-Dwyer, 1985; cited from earlier work

T1 sequence (P22303 32-614): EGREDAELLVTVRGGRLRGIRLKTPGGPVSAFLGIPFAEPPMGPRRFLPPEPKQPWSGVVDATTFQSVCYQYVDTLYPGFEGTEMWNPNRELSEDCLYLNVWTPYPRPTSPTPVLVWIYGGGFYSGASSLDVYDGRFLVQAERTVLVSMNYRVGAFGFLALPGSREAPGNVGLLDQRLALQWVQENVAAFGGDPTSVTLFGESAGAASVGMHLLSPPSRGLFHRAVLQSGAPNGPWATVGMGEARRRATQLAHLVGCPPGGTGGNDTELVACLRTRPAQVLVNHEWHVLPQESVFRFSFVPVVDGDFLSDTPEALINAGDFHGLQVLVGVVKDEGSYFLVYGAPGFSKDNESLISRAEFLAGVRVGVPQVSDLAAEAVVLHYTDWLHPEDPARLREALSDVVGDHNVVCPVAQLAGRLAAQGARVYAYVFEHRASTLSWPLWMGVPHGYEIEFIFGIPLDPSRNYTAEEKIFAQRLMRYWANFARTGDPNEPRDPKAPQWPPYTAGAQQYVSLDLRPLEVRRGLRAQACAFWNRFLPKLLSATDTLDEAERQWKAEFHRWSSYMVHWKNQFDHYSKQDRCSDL

Compound `CC(C)NCC(O)COc1cccc2ccccc12` (stereo not shown) [Propranolol, Propranolol hydrochloride] has an inhibition at 100 µM (Recombinant human AChE; read-out: AChE inhibition relative to vehicle control, single concentration 100 µM) of 18%, an inhibition at 100 µM (plasma-derived BChE) greater than 80% and an IC50 (human BChE; 5 mM BTC as substrate, plasma BChE, read-out: IC50 (BChE)) of 55600 nM. The Ki (human plasma BChE) was 190 nM, the “Inhibition mode (BChE)” value (human plasma BChE) was “competitive inhibitor” and the “Inhibition mode (BChE)” value (human plasma BChE; listed as propranolol) was “competitive inhibition”. The “Concentration that reduced BChE activity to half of its baseline level” value (human plasma BChE; substrate concentration range of 0.08 mM–0.62 mM) was 0.19 µM, the Concentration in plasma [1] was “approximately 0.59 µM” and the “Concentration in the brain tissue” value [1] was roughly 10 µM. The “Reduction of BChE activity” value (BChE) was “approximately 50%”.
In the case of `COc1ccc([C@@H]2Sc3ccccc3N(CCN(C)C)C(=O)[C@@H]2OC(C)=O)cc1` [Diltiazem, diltiazem hydrochloride], the inhibition at 100 µM (Recombinant human AChE; single concentration 100 µM, read-out: AChE inhibition relative to vehicle control) is reported as 2%, the inhibition at 100 µM (plasma-derived BChE; single concentration 100 µM, 5 mM BTC) is reported as greater than 80% and the IC50 (human BChE) is reported as 153000 nM. The Ki (human plasma BChE) was 2300 nM, the “Inhibition mode (BChE)” value (human plasma BChE) was “competitive inhibitor” and the “Inhibition mode (BChE)” value (human plasma BChE; listed as diltiazem) was “competitive inhibition”.
In the case of `CNC(=O)Oc1ccc2c(c1)[C@]1(C)CCN(C)[C@@H]1N2C` [Physostigmine], the “Inhibition mode (BChE)” value (human plasma BChE) is reported as “Competitive” and the “Inhibition mode (BChE)” value (human plasma BChE; listed as physostigmine) is reported as “competitive inhibition”.
With `CCN(CC)C(C)CN1c2ccccc2Sc2ccccc21` (stereo not shown) [Ethopropazine] the “AChE inhibition relative to vehicle control” value (Recombinant human AChE; single concentration 100 µM) was “no inhibition”, the IC50 (human BChE) was 2810 nM and the “Inhibition mode (BChE)” value (human plasma BChE) was “Mixed-competitive”. For the same compound, the “Inhibition mode (BChE)” value (human plasma BChE; listed as ethopropazine) was “mixed competitor”.
